The source of these data is patent US20250009763A1, “METHODS FOR EXTENDING LIFESPAN AND/OR DELAYING AGING” (priority 2023, published 2025).

For test [1], the system named is aged C57BL/6J mice. Briefly: Rotarod test. Type of test: in vivo, mouse. Particulars: rotarod at constant or accelerating speed; mid-term and long-term; versus SD-fed mice; FIGS. 4H-4I. The protocol:
The male C57BL/6J mice were subjected to a rotarod test at 88 weeks (mid-term) and 112 weeks (long-term) of age. The mice underwent a 3-day habituation period, during which they were placed on the rotarod at a constant speed (4 rpm), and were required to remain on the rotarod for 1 minute at a time every day. To conduct the actual test, each mouse was subjected to five trials, with a 10-15 minute rest period between each trial. For each trial, the tests for the constant and accelerated speeds were conducted sequentially according to the following schedule: During a 5-minute trial period, a run consisted of an initial constant rotating speed of 4 rpm and a subsequent accelerated rotating speed accelerated from 4 to 40 rpm was performed 5 times. […] The latency to falling was recorded, and the average latency to falling was calculated for each trial. Data are presented as the average of the 5 trials. Mid-term: SD, n=30; PN6, n=8; long-term: SD, n=22; PN6, n=8.

For the next test, the target named is T1, SIRT1 (Homo sapiens, UniProt Q96EB6).
T1 construct: endogenous in cells; host or cells: U2OS cells; IMR90 cells
T1 sequence (Q96EB6 1-747): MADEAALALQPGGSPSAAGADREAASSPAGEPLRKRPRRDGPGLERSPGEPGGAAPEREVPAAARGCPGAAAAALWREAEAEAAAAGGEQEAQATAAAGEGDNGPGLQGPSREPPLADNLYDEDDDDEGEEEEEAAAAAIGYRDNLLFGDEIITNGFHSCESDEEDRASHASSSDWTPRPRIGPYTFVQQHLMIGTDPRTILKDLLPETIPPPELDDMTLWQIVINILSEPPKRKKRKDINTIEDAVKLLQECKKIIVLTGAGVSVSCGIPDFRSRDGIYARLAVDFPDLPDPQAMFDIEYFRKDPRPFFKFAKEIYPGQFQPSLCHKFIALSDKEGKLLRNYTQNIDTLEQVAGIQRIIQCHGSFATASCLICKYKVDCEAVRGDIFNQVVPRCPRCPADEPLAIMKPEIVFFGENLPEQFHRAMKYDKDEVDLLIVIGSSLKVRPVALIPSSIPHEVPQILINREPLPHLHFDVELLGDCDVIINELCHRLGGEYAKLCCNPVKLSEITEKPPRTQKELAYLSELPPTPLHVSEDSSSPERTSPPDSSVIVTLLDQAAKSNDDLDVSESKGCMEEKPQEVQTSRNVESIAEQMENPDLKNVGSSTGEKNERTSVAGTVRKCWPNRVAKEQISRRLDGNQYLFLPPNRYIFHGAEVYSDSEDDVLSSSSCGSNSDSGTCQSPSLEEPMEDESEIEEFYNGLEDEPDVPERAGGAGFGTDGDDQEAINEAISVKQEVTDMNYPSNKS
Briefly: Acetylation of p53 (K382) via UV irradiation, western blot, IMR90 cells. Type of test: cell-based. Particulars: FIGS. 2G-2H. The protocol:
U2OS cells (1.2×10^5 cells/dish) or IMR90 cells (3.0×10^5 cells/dish) were seeded into a 3.5 cm culture dish, and incubated with 0, 10, 25, 50, or 100 μM PN6 for 16 hours, before subjected to UVB irradiation at 7.5 mJ/m^2 (for U2OS cells) or 5.0 mJ/m^2 (for IMR90 cells) for 4 hours.
Cells were harvested with a 1.25× Laemmli buffer and lysed in RIPA lysis buffer containing 1% of Triton X-100 and a protease inhibitor cocktail, and total protein concentrations were measured with a protein assay kit. Proteins in the samples of the lysates with the same amounts of total protein were separated by sodium dodecyl sulfate polyacrylamide gel electrophoresis (SDS-PAGE) (10% polyacrylamide gels) and analyzed by immunoblotting. Primary antibodies against p53ac (K382) (1:1,000), p21 (1:1,000), and 3-actin (1:200,000) were applied to detect the corresponding proteins. Horseradish peroxidase (HRP)-conjugated secondary antibodies against mouse IgG were then incubated with the membranes, and proteins were visualized by chemiluminescence according to the manufacturer's instructions. Protein quantification was performed by software.

The next test has as its system HUVECs. As to the kind of experiment: Senescence-associated (SA)-β-gal staining. It is filed as cell-based, human. Particulars: HUVECs at PDL11, versus control without PN6; FIG. 3C. The protocol: For the population doubling (PD) assay, HUVECs (1×10^5 cells/3.5 cm dish) were propagated in the presence of DMSO (i.e., control) or PN6 (1 or 2 μM) until senescence (Day 41), and the cell numbers in each passage were recorded to generate a growth curve that represented the cumulative population doubling. The population doubling levels (PDLs) of HUVECs were calculated in every culture to indicate the proliferation capacity of HUVECs under the respective conditions. The population doublings (PDs) were estimated using the equation: PDL=3.32 (log (total viable cells at harvest/total viable cells at seeding). Also, HUVECs at passages PDL4 and PDL11 cultured in 0 μM (i.e., DMSO alone), 1 μM, or 2 μM PN6 were harvested for further analyses (e.g., western blot and SA-β-gal staining).
HUVECs at 90% confluency were collected, washed, and fixed with 2% formaldehyde and 0.2% glutaraldehyde for 5 minutes. The cells were then subjected to staining by incubation with a staining solution (40 mmol/l citric acid, sodium phosphate, pH 6.0, 1 mg/ml 5-bromo-4-chloro-3-isolyl-β-D-galactoside (X-gal, Sigma), 5 mmol/l potassium ferrocyanide, 5 mmol/l potassium ferricyanide, 150 mmol/l NaCl, and 2 mmol/l MgCl2) at 37° C. for 18-24 hours. The results of SA-β-gal-positive cells were observed by microscopy, and were counted for over 300 cells in at least three independent fields.

The test system of test [2] is aged C57BL/6J mice. Briefly: Grip strength test. The following applies: forelimbs, hindlimbs and all four limbs; mid-term and long-term; versus SD group; FIGS. 4E-4G. Type of test: in vivo, mouse. The protocol: The grip strength of the male C57BL/6J mice was measured at 87 weeks (mid-term) and 111 weeks (long-term) of age using an adjustable metallic grid mounted with a force sensor (DTG-5, DigiTech, JP). To conduct the test, the mice were placed on the aforementioned test device and were held gently by the tail, allowing them to grip the grid with forelimbs, hindlimbs, or four limbs (for measuring 2-paw and 4-paw grip strength, respectively). The device automatically measured and recorded the peak force in grams (g). Five trials were performed for each test, and the mean values were used to determine the grip strength of each mouse. Mid-term: SD, n=30; PN6, n=8; long-term: SD, n=23; PN6, n=8.

As for `CCC(CC[C@@H](C)C1CCC2C3CC(=O)[C@H]4C[C@@H](O)CC[C@]4(C)C3CC[C@@]21C)C(C)C` (stereo in doubt) [PN6, (24S)-3β-hydroxy-5α-stigmastan-6-one], the “motor skills (latency to falling)” value in the test with aged C57BL/6J mice [1] is reported as “steadily improved”. The “SIRT1 activity / acetylation of P53 at K382” value on SIRT1 is “increased SIRT1 activity to reverse acetylation of P53 at K382”. In addition, the “number of SA-β-gal-positive senescent cells” value in the test on HUVECs is reported as “decrease in the number”. Also, the grip strength entry in the test on aged C57BL/6J mice [2] was “increased grip strength”.
